From patent US7300930B2, “Therapeutic acridone and acridine compounds” (Cancer Research Technology Limited, priority 2000, dated 2007)

Legend:
[1] = Growth inhibition, sulforhodamine B (SRB) assay, A2780; assay type: cell-based; settings: human, A2780 ovarian carcinoma cells, A2780, 96 hr incubation, tested as salts, read-out: Cytotoxicity - IC50 A2780
Experimental: (§1) Growth inhibition was measured in three human ovarian carcinoma cell lines (A2780, CH1, and SKOV-3) and one human cervix carcinoma cell line (A431) using the sulforhodamine B (SRB) assay. Briefly, between 3000 and 6000 cells were seeded into the wells of 96-well microtiter plates and allowed to attach overnight. Compounds (acid addition and quaternary dimethiodide salts) were dissolved at 500 μM in water and immediately added to wells in quadruplicate at final concentrations of 0.05, 0.25, 1, 5 and 25 μM. Following an incubation period of 96 hr, remaining cells were fixed with ice-cold 10% w/v trichloroacetic acid (30 min) and stained with 0.4% SRB in 1% v/v acetic acid (15 min). Mean absorbance at 540 nm for each drug concentration was expressed as a percentage of the control untreated well absorbance, and IC50 values (concentration required to inhibit cell growth by 50%) were determined for each agent.

[2] = Growth inhibition, sulforhodamine B (SRB) assay, SKOV-3; assay type: cell-based; settings: human, SKOV-3 ovarian carcinoma cells, SKOV-3, 96 hr incubation, tested as salts, read-out: Cytotoxicity - IC50 SKOV-3
Experimental: as §1

[3] = Growth inhibition, sulforhodamine B (SRB) assay, CH1; assay type: cell-based; settings: human, CH1 ovarian carcinoma cells, CH1, 96 hr incubation, tested as salts, read-out: Cytotoxicity - IC50 CH1
Experimental: as §1

[4] = target: telomerase (Homo sapiens, UniProt O14746); assay: Modified telomeric repeat amplification protocol (TRAP) assay, cell-free; assay type: biochemical; settings: extracts from A2780 cells, tested as salts, read-out: telIC50 (Telomerase Inhibitory Activity)
Experimental: The ability of compounds to inhibit telomerase in a cell-free assay was assessed with a modified TRAP assay using extracts from exponentially growing A2780 human ovarian carcinoma cells. The TRAP assay was performed in 2 steps: (a) telomerase-mediated extension of the forward primer (TS: 5′-AATCCGTCGAGCAGAGTT (SEQ ID NO:3), Oswel Ltd., Southampton, UK) contained in a 40 µL reaction mix comprising TRAP buffer (20 mM Tris-HCl (pH 8.3), 68 mM KCl, 1.5 mM MgCl2, 1 mM EGTA, 0.05% v/v Tween 20), 0.05 μg bovine serum albumin, 50 μM of each deoxynucleotide triphosphate, 0.1 μg TS primer, and 3 μCi of [α-^32P]dCTP (Amersham plc, UK). Protein (40 ng or 20 ng) was then incubated with the reaction mix+agent (acid addition and quaternary dimethiodide salts) at final concentrations of up to 50 μM for 20 min at 25° C. A lysis buffer (no protein) control, heat-inactivated protein control, and 50% protein (20 ng or 10 ng) control were included in each assay; and (b) while heating at 80° C. in a PCR block of a thermal cycler (Hybaid, UK) for 5 min to inactivate telomerase activity, 0.1 μg of reverse CX primer (3′-[…]-5′ (SEQ ID NO:4)) and 2 Units of Taq DNA polymerase (“red hot”, Advanced Biotechnologies) were added. A 3-step PCR was then performed: 94° C. for 30 s, 50° C. for 30 s, and 72° C. for 1 min for 31 cycles. Telomerase-extended PCR products in the presence or absence of compounds were then determined either by electrophoretic separation using 8% w/w acrylamide denaturing gels and analysis by phosphorimaging or autoradiography, or by harvesting on Whatman filters (25 mm glass microfibre) and analysis by liquid scintillation counting.

[5] = Growth inhibition, sulforhodamine B (SRB) assay, A431; assay type: cell-based; settings: human, A431 cervix carcinoma cells, A431, 96 hr incubation, tested as salts, read-out: Cytotoxicity - IC50 A431
Experimental: as §1

Chain of telomerase (O14746 whole entry): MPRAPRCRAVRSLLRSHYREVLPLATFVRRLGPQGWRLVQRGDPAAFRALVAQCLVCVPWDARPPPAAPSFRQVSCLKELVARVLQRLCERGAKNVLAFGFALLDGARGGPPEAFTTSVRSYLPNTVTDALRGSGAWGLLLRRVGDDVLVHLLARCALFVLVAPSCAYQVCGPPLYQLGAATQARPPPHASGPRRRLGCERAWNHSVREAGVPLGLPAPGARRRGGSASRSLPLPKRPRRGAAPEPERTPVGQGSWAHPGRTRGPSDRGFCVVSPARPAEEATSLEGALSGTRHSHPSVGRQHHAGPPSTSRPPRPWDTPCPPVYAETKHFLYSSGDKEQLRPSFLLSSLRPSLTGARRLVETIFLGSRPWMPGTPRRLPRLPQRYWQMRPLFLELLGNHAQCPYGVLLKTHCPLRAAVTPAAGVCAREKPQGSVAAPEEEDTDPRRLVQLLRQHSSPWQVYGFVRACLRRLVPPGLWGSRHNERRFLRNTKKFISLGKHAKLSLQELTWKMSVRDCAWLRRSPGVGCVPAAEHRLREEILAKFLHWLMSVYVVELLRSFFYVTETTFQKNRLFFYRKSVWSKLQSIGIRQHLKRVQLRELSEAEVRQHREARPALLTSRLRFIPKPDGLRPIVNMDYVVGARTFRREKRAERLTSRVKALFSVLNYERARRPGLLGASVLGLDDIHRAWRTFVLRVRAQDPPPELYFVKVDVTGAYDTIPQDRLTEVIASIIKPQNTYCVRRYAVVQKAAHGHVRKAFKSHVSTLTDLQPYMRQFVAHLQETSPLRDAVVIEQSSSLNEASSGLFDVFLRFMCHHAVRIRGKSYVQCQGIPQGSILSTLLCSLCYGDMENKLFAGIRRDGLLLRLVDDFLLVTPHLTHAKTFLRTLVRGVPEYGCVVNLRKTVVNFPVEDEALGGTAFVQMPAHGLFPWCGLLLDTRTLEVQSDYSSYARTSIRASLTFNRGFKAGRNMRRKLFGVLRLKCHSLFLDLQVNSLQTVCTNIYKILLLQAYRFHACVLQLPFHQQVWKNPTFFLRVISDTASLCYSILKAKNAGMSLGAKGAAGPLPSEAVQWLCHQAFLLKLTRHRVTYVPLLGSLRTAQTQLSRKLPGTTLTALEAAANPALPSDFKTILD

Row | IC50 [4] [µM] | Compound | IC50 at 96 h [1] [µM] | IC50 at 96 h [2] [µM] | IC50 at 96 h [3] [µM] | IC50 at 96 h [5] [µM]
1 | 5.8 | O=C(CCN1CCCCC1)Nc1ccc2nc3ccc(NC(=O)CCN4CCCCC4)cc3c(O)c2c1 [BR-ACO-10, 2,7-Bis[3-(piperidino)propionamido]-9(10H)-acridone] | > 25 | > 25 | > 25 | 
2 | 1.9 | CC1CCN(CCC(=O)Nc2ccc3c(=O)c4ccc(NC(=O)CCN5CCC(C)CC5)cc4[nH]c3c2)CC1 [BR-ACO-33, 3,6-Bis[3-(4-methylpiperidino)propionamido]-9(10H)-acridone] | 3 | 5.6 | 3 | 
3 | 0.066 | O=C(CCN1CCCC1)Nc1ccc2c(NCc3cccnc3)c3ccc(NC(=O)CCN4CCCC4)cc3nc2c1 [SB-ACI-13, N-[9-(Pyridin-3′-yl-methylamino)]-3,6-bis(3-pyrrolidinopropionamido)acridine] | > 25 | > 25 | > 25 | > 25
4 | 1.8 | O=C(CCN1CCC(O)CC1)Nc1ccc2c(O)c3ccc(NC(=O)CCN4CCC(O)CC4)cc3nc2c1 [BR-ACO-34, 3,6-Bis[3-(4-hydroxypiperidino)propionamido]-9(10H)-acridone] | > 25 | > 25 | > 25 | 
5 | 4.3 | CN(C)CCC(=O)Nc1ccc2c(=O)c3ccc(NC(=O)CCN(C)C)cc3[nH]c2c1 [BR-ACO-6, 3,6-Bis[3-(dimethylamino)propionamido]-9(10H)-acridone] | > 25 | > 25 | > 25 | 
6 | 0.018 | CN(C)CCNc1c2ccc(NC(=O)CCN3CCCC3)cc2nc2cc(NC(=O)CCN3CCCC3)ccc12 [SB-ACI-11, N-[9-(N,N-Dimethylethylenediamino)]-3,6-bis(3-pyrrolidinopropionamido)acridine] | > 25 | > 25 | 17 | > 25
7 | 0.74 | CCN1CCN(CCC(=O)Nc2ccc3c(=O)c4ccc(NC(=O)CCN5CCN(CC)CC5)cc4[nH]c3c2)CC1 [BR-ACO-39] | > 25 | > 25 | > 25 | 
8 | 2.8 | O=C(CCN1CCCC1)Nc1ccc2nc3ccc(NC(=O)CCN4CCCC4)cc3c(O)c2c1 [BR-ACO-9, 2,7-Bis[3-(pyrrolidino)propionamido]-9(10H)-acridone] | > 25 | > 25 | > 25 | 
9 | 0.06 | Nc1cccc(Nc2c3ccc(NC(=O)CCN4CCCC4)cc3nc3cc(NC(=O)CCN4CCCC4)ccc23)c1 [JH-ACI-74, N-{9-[3′-(Amino)phenylamino]}-3,6-bis(3-pyrrolidinopropionamido)acridine] | 12.6 | > 25 | 15.8 | 12.6
10 | 0.15 | CSc1ccccc1Nc1c2ccc(NC(=O)CCN3CCCC3)cc2nc2cc(NC(=O)CCN3CCCC3)ccc12 [JC-ACI-4, N-{9-[2′-(Methylsulfanyl)phenylamino]}-3,6-bis(3-pyrrolidinopropionamido)acridine] |  |  |  | 2.5
11 | 0.14 | COCCNc1c2ccc(NC(=O)CCN3CCCC3)cc2nc2cc(NC(=O)CCN3CCCC3)ccc12 [JH-ACI-86, N-[9-(2-Methoxy-ethylamino)]-3,6-bis(3-pyrrolidinopropionamido)acridine] | 10 | 17.8 | 3.2 | 10
12 | 0.21 | O=C(CCN1CCCC1)Nc1ccc2c(NC3CCCCCC3)c3ccc(NC(=O)CCN4CCCC4)cc3nc2c1 [JH-ACI-88, N-[9-(Cycloheptylamino)]-3,6-bis(3-pyrrolidinopropionamido)acridine] | 3.2 | 9.3 | 2.8 | 3.2
13 | 5.7 | CCN(CC)CCC(=O)Nc1ccc2c(=O)c3ccc(NC(=O)CCN(CC)CC)cc3[nH]c2c1 [BR-ACO-7, 3,6-Bis[3-(diethylamino)propionamido]-9(10H)-acridone] | > 25 | > 25 | > 25 | 
14 | 0.05 | O=C(CCN1CCCC1)Nc1ccc2c(NC3CC3)c3ccc(NC(=O)CCN4CCCC4)cc3nc2c1 [JM-ACI-14, N-[9-(Cyclopropylamino)]-3,6-bis(3-pyrrolidinopropionamido)acridine] | 19 | > 25 | > 25 | > 25
15 | 5.9 | O=C(CCN1CCCCC1)Nc1ccc2c(=O)c3ccc(NC(=O)CCN4CCCCC4)cc3[nH]c2c1 [BR-ACO-5, 3,6-Bis[3-(piperidino)propionamido]-9(10H)-acridone] | 19 | 21 | 13 | 
16 | 1.77 | CC1(C)CC2CC(C)(CN2CCC(=O)Nc2ccc3c(=O)c4ccc(NC(=O)CCN5CC6(C)CC5CC(C)(C)C6)cc4[nH]c3c2)C1 [JH-ACO-32, 3,6-Bis[(1,3,3-trimethyl-6-azabicyclo[3.2.1]-octanamino)propionamido]-9(10H)-acridone] | 1.9 | 2.5 | 2.5 | 10
17 | 0.08 | Nc1ccc(Nc2c3ccc(NC(=O)CCN4CCCC4)cc3nc3ccc(NC(=O)CCN4CCCC4)cc23)cc1 [JH-ACI-105, N-{9-[4′-(Amino)phenylamino]}-2,6-bis(3-pyrrolidinopropionamido)acridine] | > 25 | > 25 | 15.8 | > 25
18 | 0.16 | CC1(C)CC2CC(C)(CN2CCC(=O)Nc2ccc3c(Nc4ccc(N)cc4)c4ccc(NC(=O)CCN5CC6(C)CC5CC(C)(C)C6)cc4nc3c2)C1 [JH-ACI-101, N-{9-[4′-(Amino)phenylamino]}-3,6-bis[(1,3,3-trimethyl-6-azabicyclo[3.2.1]-octanamino)propionamido]-acridine] | 1.6 | 1.2 | 2.3 | 2.5
19 | 0.07 | O=C(CCN1CCCC1)Nc1ccc2c(Nc3ccc(F)cc3)c3ccc(NC(=O)CCN4CCCC4)cc3nc2c1 [JC-ACI-3, N-{9-[4′-Fluorophenylamino]}-3,6-bis(3-pyrrolidinopropionamido)acridine] |  |  |  | 2.5
20 | 49 | O=C(CCN1CCOCC1)Nc1ccc2c(O)c3ccc(NC(=O)CCN4CCOCC4)cc3nc2c1 [BR-ACO-8, 3,6-Bis[3-(morpholino)propionamido]-9(10H)-acridone] | > 25 | > 25 | > 25 | 
21 | 1.6 | CCC1CCCCN1CCC(=O)Nc1ccc2c(=O)c3ccc(NC(=O)CCN4CCCCC4CC)cc3[nH]c2c1 (stereo not shown) [BR-ACO-37, 3,6-Bis[3-(2-ethylpiperidino)propionamido]-9(10H)-acridone] | 11.8 | 10.5 | 11 | 
22 | 8 | O=C(CCN1CCCC1)Nc1ccc2c(=O)c3ccc(NC(=O)CCN4CCCC4)cc3[nH]c2c1 [BR-ACO-4, 3,6-Bis[3-(pyrrolidino)propionamido]-9(10H)-acridone] | > 25 | > 25 | > 25 | 
23 | 3.3 | CC1CCCCN1CCC(=O)Nc1ccc2c(=O)c3ccc(NC(=O)CCN4CCCCC4C)cc3[nH]c2c1 (stereo not shown) [BR-ACO-36, 3,6-Bis[3-(2-methylpiperidino)propionamido]-9(10H)-acridone] | 13 | 12 | 11.8 | 
